Results on 10 compounds are retold here after ChEMBL document CHEMBL2150945, “Synthesis and biological evaluation of novel piperazine derivatives of flavone as potent anti-inflammatory and antimicrobial agent” (2012).

≈ marks a conversion by molar mass, not a printed value.

Test [1] concerns Bacillus subtilis. The test can be described thus: Antibacterial activity against Bacillus subtilis MTCC 441 after 24 hrs by modified agar well diffusion method. The format is functional. As to conditions: MTCC 441, 24 h. In general terms: In agar diffusion tests the substance spreads into inoculated agar from a disc or well.
Test [2] concerns Aspergillus flavus. Put plainly: Antifungal activity against Aspergillus flavus MTCC 277 after 2 to 3 days by modified agar well diffusion method. It is filed as functional.
Test [3] concerns THP-1. The test can be described thus: Antiinflammatory activity in human PMA-activated THP1 cells assessed as inhibition of LPS-induced IL6 production at 10 uM incubated for 30 mins prior to LPS-challenge measured after 24 hrs by ELISA relative to control. It is filed as functional. On the technique in general: An ELISA detects its analyte on a solid surface through an enzyme-linked reagent.

For test [4], the system named is Fusarium solani. The test can be described thus: Antifungal activity against Fusarium solani MTCC 350 after 2 to 3 days by modified agar well diffusion method. It is filed as functional.
Test [5] deals with Aspergillus niger. Put plainly: Antifungal activity against Aspergillus niger MTCC 281 after 2 to 3 days by modified agar well diffusion method. The format is functional.
The subject of test [6] is THP-1. Put plainly: Antiinflammatory activity in human PMA-activated THP1 cells assessed as inhibition of LPS-induced TNFalpha production at 10 uM incubated for 30 mins prior to LPS-challenge measured after 24 hrs by ELISA relative to control. It is filed as functional.
Test [7] concerns Candida albicans. Put plainly: Antifungal activity against Candida albicans MTCC 227 after 2 to 3 days by modified agar well diffusion method. The format is functional.
Test [8] has as its system Salmonella typhimurium. The test can be described thus: Antibacterial activity against Salmonella typhimurium MTCC 98 after 24 hrs by modified agar well diffusion method. The format is functional, Salmonella enterica subsp. enterica serovar Typhimurium. Particulars: Salmonella enterica, MTCC 98, 24 h.
Test [9] has as its system Escherichia coli. Put plainly: Antibacterial activity against Escherichia coli MTCC 443 after 24 hrs by modified agar well diffusion method. It is filed as functional. As to conditions: MTCC 443, 24 h.
The test system of test [10] is Staphylococcus aureus. The test can be described thus: Antibacterial activity against Staphylococcus aureus MTCC 96 after 24 hrs by modified agar well diffusion method. The format is functional. Particulars: MTCC 96, 24 h.
The test system of test [11] is Fusarium solani. Put plainly: Ratio of miconazole MIC to compound MIC for Fusarium solani MTCC 350. It is filed as functional.
Test [12] concerns Staphylococcus aureus. Put plainly: Ratio of ciprofloxacin MIC to compound MIC for Staphylococcus aureus MTCC 96. The format is functional.
For test [13], the system named is Candida albicans. The test can be described thus: Ratio of miconazole MIC to compound MIC for Candida albicans MTCC 227. The format is functional.
For test [14], the system named is Escherichia coli. Put plainly: Ratio of ciprofloxacin MIC to compound MIC for Escherichia coli MTCC 443. It is filed as functional.
The subject of test [15] is Aspergillus flavus. Put plainly: Ratio of miconazole MIC to compound MIC for Aspergillus flavus MTCC 277. It is filed as functional.
For test [16], the system named is Salmonella typhimurium. The test can be described thus: Ratio of ciprofloxacin MIC to compound MIC for Salmonella typhimurium MTCC 98. The format is functional, Salmonella enterica subsp. enterica serovar Typhimurium.
In test [17] the test system is Bacillus subtilis. Put plainly: Ratio of ciprofloxacin MIC to compound MIC for Bacillus subtilis MTCC 441. The format is functional.
Test [18] concerns Aspergillus niger. The test can be described thus: Ratio of miconazole MIC to compound MIC for Aspergillus niger MTCC 281. The format is functional.

In the case of `COc1cc(OC)c2c(=O)cc(CN3CCN(c4ccccn4)CC3)oc2c1`, the MIC stood at 85 µg/mL (≈ 223 µM) in test [1]; 95 µg/mL (≈ 249 µM) in [2]; 90 µg/mL (≈ 236 µM) in test [4]; 95 µg/mL (≈ 249 µM) in [5]; 85 µg/mL (≈ 223 µM) in test [7]. For the same compound, the inhibition at 10 µM in test [3] worked out at 70%; in [6] it was 65%.
For the compound `COc1cc(OC)c2c(=O)cc(CN3CCN(c4ncccn4)CC3)oc2c1`, the MIC in test [2] came to 95 µg/mL (≈ 248 µM); in [8], 90 µg/mL (≈ 235 µM); in test [4] it was 65 µg/mL (≈ 170 µM); in [5], 75 µg/mL (≈ 196 µM); in test [9] it was 90 µg/mL (≈ 235 µM); in [7], 90 µg/mL (≈ 235 µM). For the same compound, the inhibition at 10 µM stood at 93% in test [3] and 87% in test [6].
`COc1cc(OC)c2c(=O)cc(CN3CCN(C(C)=O)CC3)oc2c1`: the MIC in [1] came out at 60 µg/mL (≈ 173 µM); in test [2] it was 90 µg/mL (≈ 260 µM); in test [8], 90 µg/mL (≈ 260 µM); in test [4] it was 85 µg/mL (≈ 245 µM); in test [5] it was 60 µg/mL (≈ 173 µM); in [9], 95 µg/mL (≈ 274 µM). Besides, the MIC in test [7] stood at 75 µg/mL (≈ 217 µM); in test [10], 80 µg/mL (≈ 231 µM). The inhibition at 10 µM in test [3] and in test [6] was 0% each time.
For `COc1cc(OC)c2c(=O)cc(CN3CCN(C)CC3)oc2c1`, the MIC turned out to be 45 µg/mL (≈ 141 µM) in test [1]; 75 µg/mL (≈ 236 µM) in test [2]; 90 µg/mL (≈ 283 µM) in [8]; 75 µg/mL (≈ 236 µM) in test [4]; 55 µg/mL (≈ 173 µM) in test [5]; 90 µg/mL (≈ 283 µM) in test [9]. Further, the MIC in [7] was 70 µg/mL (≈ 220 µM); in test [10], 60 µg/mL (≈ 188 µM). For the same compound, the inhibition at 10 µM in test [3] came out at 0%; in test [6], 10%.
As to `CCN1CCN(Cc2cc(=O)c3c(OC)cc(OC)cc3o2)CC1`, the MIC in [1] is 65 µg/mL (≈ 196 µM); in test [2], 60 µg/mL (≈ 181 µM); in test [8], 70 µg/mL (≈ 211 µM); in [4] it was 45 µg/mL (≈ 135 µM); in test [5], 35 µg/mL (≈ 105 µM); in test [9], 70 µg/mL (≈ 211 µM). The MIC in test [7] was 55 µg/mL (≈ 165 µM); in [10] it was 75 µg/mL (≈ 226 µM). For the same compound, the inhibition at 10 µM in test [3] came out at 30%; in test [6], 20%.
As for `COc1cc(OC)c2c(=O)cc(CN3CCOCC3)oc2c1`, the MIC was 90 µg/mL (≈ 295 µM) in [1]; 90 µg/mL (≈ 295 µM) in test [2]; 85 µg/mL (≈ 278 µM) in test [4]; 80 µg/mL (≈ 262 µM) in test [5]; 85 µg/mL (≈ 278 µM) in [7]. The results for the inhibition at 10 µM in test [3] and in test [6] were 91% and 85%, respectively.
Regarding `COc1cc(OC)c2c(=O)cc(CN3CCN(C/C=C/c4ccccc4)CC3)oc2c1`, the Ratio in [11], in [12], in test [13], in test [14], in [15] and in test [16] was 2 each time. For the same compound, the Ratio in [17] and in [18] was 2 in each case. The MIC stood at 10 µg/mL (≈ 23.8 µM) in test [1]; 10 µg/mL (≈ 23.8 µM) in test [8]; 15 µg/mL (≈ 35.7 µM) in [9]; 90 µg/mL (≈ 214 µM) in test [7]; 20 µg/mL (≈ 47.6 µM) in test [10]. In addition, the inhibition at 10 µM in test [3] amounted to 25%; in test [6] it was 10%.
Take `COc1ccc2oc(N3CCOCC3)cc(=O)c2c1`: the MIC in [1] was found to be 75 µg/mL (≈ 287 µM); in test [8], 90 µg/mL (≈ 344 µM); in test [5] it was 90 µg/mL (≈ 344 µM); in test [9] it was 90 µg/mL (≈ 344 µM); in test [10], 95 µg/mL (≈ 364 µM). Further, the results for the inhibition at 10 µM in test [3] and in [6] were 84% and 80%, respectively.
For `O=C(O)c1cn(C2CC2)c2cc(N3CCNCC3)c(F)cc2c1=O` [CIPROFLOXACIN], the MIC in test [1] was determined as 25 µg/mL (≈ 75.4 µM); in [8], 25 µg/mL (≈ 75.4 µM); in test [9], 15 µg/mL (≈ 45.3 µM).
Regarding `Clc1ccc(COC(Cn2ccnc2)c2ccc(Cl)cc2Cl)c(Cl)c1` (stereo unspecified) [MICONAZOLE], the MIC came to 20 µg/mL (≈ 48.1 µM) in test [2], 15 µg/mL (≈ 36 µM) in test [4], 20 µg/mL (≈ 48.1 µM) in [5] and 25 µg/mL (≈ 60.1 µM) in test [7].

Usually MIC stands for the smallest concentration in the dilution series that meets the test's criterion for growth inhibition. The term inhibition denotes the percentage by which the read-out fell short of the control.
